Among the data in PMC7587962, “Evaluation of Cytotoxicity and α-Glucosidase Inhibitory Activity of Amide and Polyamino-Derivatives of Lupane Triterpenoids” (Molecules, 2020) are IC50 and GI50 values, retold here.

One experiment deals with Yeast α-Glucosidase. Nature of the experiment: Yeast α-glucosidase activity assay. Format: biochemical, S. cerevisiae. To be noted: pH 6.8, 37 °C, p-nitrophenyl-α-D-glucopyranoside 1 mM; read-out: Yeast α-Glucosidase, IC50 ± SE. On the procedure:
Taken together, these considerations prompted us to evaluate a series of lupanes with amide function or polyamine chain 11, 12, 16, 18, and 22–26 for α-glucosidase inhibition. Initially, they were screened against α-glucosidase of S. cerevisiae as an accessible and high-throughput model. Confirmatory experiments were performed on isolated rough endoplasmic reticulum vesicles from rat liver, which contain neutral α-glucosidases I and II in a membrane-bound form.
In a 96-well flat transparent plate, the 0.12 U/mL enzyme solution (EC 3.2.1.20, expressed in S. cerevisiae, Sigma #G0660, St. Louis, MO, USA) was incubated with test compounds in 67 mM PBS (pH 6.8) at 37 °C for 5 min. Then, p-nitrophenyl-α-D-glucopyranoside (Sigma #N1377, St. Louis, MO, USA) was added to 1 mM final concentration and an increase in absorbance was recorded for 15 min at 405 nm wavelength with Infinite M200 PRO microplate reader (Tecan, Austria). Test compounds were dissolved in DMSO and diluted to the desired concentration in 67 mM PBS (pH 6.8) supplemented with 0.01% Tween 80 to avoid aggregation. Final DMSO concentration was <0.25% in sample wells, and it was also introduced in control and blank wells. […] Due to the absence of normal distribution of data, a Mann–Whitney U-test was used to determine statistical significance versus enzyme control using GraphPad Prism 8.0.1.

The next experiment has as its system OVCAR-4. Also on record: method as in PMID 25405285. To be noted: standard drugs used by NCI as control; cited from earlier work.
The next experiment deals with NCI/ADR-RES. Also on record: method as in PMID 25405285. To be noted: standard drugs used by NCI as control; cited from earlier work.
The test system of another experiment is CCRF-CEM. Also on record: method as in PMID 25405285. The note with it: standard drugs used by NCI as control; cited from earlier work.
In the next experiment the test system is SK-OV-3. Also on record: method as in PMID 25405285. To be noted: standard drugs used by NCI as control; cited from earlier work.
A further experiment deals with SK-MEL-28. Also on record: method as in PMID 25405285. To be noted: standard drugs used by NCI as control; cited from earlier work.
A further experiment has as its system MDA-MB-231/ATCC. Also on record: method as in PMID 25405285. The note with it: MDA-MB-31/ATCC; standard drugs used by NCI as control; cited from earlier work.
The next experiment has as its system RPMI-8226. Also on record: method as in PMID 25405285. The note with it: standard drugs used by NCI as control; cited from earlier work.
For a further experiment, the system named is OVCAR-8. Further details: method as in PMID 25405285. To be noted: standard drugs used by NCI as control; cited from earlier work.
The next experiment has as its system NCI-H23. Further details: method as in PMID 25405285. To be noted: standard drugs used by NCI as control; cited from earlier work.
In another experiment the test system is CAKI-1. Further details: method as in PMID 25405285. The note with it: standard drugs used by NCI as control; cited from earlier work.
In another experiment the test system is PC-3. Also on record: method as in PMID 25405285. To be noted: standard drugs used by NCI as control; cited from earlier work.
The test system of a further experiment is IGROV1. Also on record: method as in PMID 25405285. The note with it: standard drugs used by NCI as control; cited from earlier work.
The subject of the next experiment is NCI-H460. Also on record: method as in PMID 25405285. To be noted: standard drugs used by NCI as control; cited from earlier work.
The next experiment relates to MDA-MB-435. Also on record: method as in PMID 25405285. The note with it: standard drugs used by NCI as control; cited from earlier work.
Another experiment relates to NCI-H522. Further details: method as in PMID 25405285. To be noted: standard drugs used by NCI as control; cited from earlier work.
Another experiment deals with HS 578T. Also on record: method as in PMID 25405285. The note with it: standard drugs used by NCI as control; cited from earlier work.
In the next experiment the test system is MALME-3M. Further details: method as in PMID 25405285. To be noted: standard drugs used by NCI as control; cited from earlier work.
For the next experiment, the system named is KM12. Further details: method as in PMID 25405285. The note with it: standard drugs used by NCI as control; cited from earlier work.
The subject of the next experiment is SN12C. Further details: method as in PMID 25405285. The note with it: standard drugs used by NCI as control; cited from earlier work.
The subject of another experiment is A549/ATCC. Also on record: method as in PMID 25405285. To be noted: standard drugs used by NCI as control; cited from earlier work.
The subject of the next experiment is HT29. Further details: method as in PMID 25405285. To be noted: standard drugs used by NCI as control; cited from earlier work.
For a further experiment, the system named is U251. Also on record: method as in PMID 25405285. To be noted: standard drugs used by NCI as control; cited from earlier work.
The test system of a further experiment is SNB-75. Also on record: method as in PMID 25405285. The note with it: standard drugs used by NCI as control; cited from earlier work.
The next experiment has as its system BT-549. Also on record: method as in PMID 25405285. To be noted: standard drugs used by NCI as control; cited from earlier work.
Another experiment relates to NCI-H226. Further details: method as in PMID 25405285. To be noted: standard drugs used by NCI as control; cited from earlier work.
Another experiment concerns MDA-MB-468. Also on record: method as in PMID 25405285. To be noted: standard drugs used by NCI as control; cited from earlier work.
Another experiment has as its system UO-31. Further details: method as in PMID 25405285. To be noted: standard drugs used by NCI as control; cited from earlier work.
The next experiment deals with SF-539. Also on record: method as in PMID 25405285. The note with it: standard drugs used by NCI as control; cited from earlier work.
The next experiment relates to SF-295. Further details: method as in PMID 25405285. To be noted: standard drugs used by NCI as control; cited from earlier work.
A further experiment concerns RXF 393. Further details: method as in PMID 25405285. The note with it: standard drugs used by NCI as control; cited from earlier work.
The test system of a further experiment is HOP-92. Further details: method as in PMID 25405285. The note with it: standard drugs used by NCI as control; cited from earlier work.
In the next experiment the test system is 786-0. Further details: method as in PMID 25405285. To be noted: standard drugs used by NCI as control; cited from earlier work.
Another experiment relates to SR. Also on record: method as in PMID 25405285. To be noted: standard drugs used by NCI as control; cited from earlier work.
The next experiment concerns HCT-15. Further details: method as in PMID 25405285. The note with it: standard drugs used by NCI as control; cited from earlier work.

`C=C(C)[C@@H]1CC[C@]2(C(=O)NCCNCCNCCN)CC[C@]3(C)[C@H](CC[C@@H]4[C@@]5(C)CCC(=O)C(C)(C)[C@@H]5CC[C@]43C)[C@@H]12` [Compound 11]: on Yeast α-Glucosidase, the concentration for half-maximal inhibition (IC50) – broadly, the point on the concentration scale where inhibition reaches its midpoint – came out at 4840 ± 1020 nM.
`COc1cccc2c1C(=O)c1c(O)c3c(c(O)c1C2=O)C[C@@](O)(C(=O)CO)C[C@@H]3O[C@H]1C[C@H](N)[C@H](O)[C@H](C)O1` [DRB, doxorubicin]: the GI50 (as a rule, the concentration at which growth is held to half of that of the control) was 370 nM in the experiment with OVCAR-4; 7160 nM in the experiment on NCI/ADR-RES; 80 nM in the experiment with CCRF-CEM; 220 nM in the experiment on SK-OV-3; 210 nM in the experiment with SK-MEL-28; 510 nM in the experiment on MDA-MB-231/ATCC. Also, the GI50 in the experiment on RPMI-8226 was 80 nM; in the experiment with OVCAR-8, 100 nM; with NCI-H23 it was 150 nM; in the experiment on CAKI-1, 950 nM; in the experiment on PC-3 it was 320 nM; in the experiment with IGROV1, 170 nM. Moreover, the GI50 is 20 nM in the experiment with NCI-H460; 250 nM in the experiment on MDA-MB-435; 30 nM in the experiment on NCI-H522; 330 nM in the experiment with HS 578T; 120 nM in the experiment on MALME-3M; 270 nM in the experiment on KM12. For the same compound, the concentration for 50% growth inhibition (GI50) with SN12C was 70 nM; with A549/ATCC, 60 nM; with HT29, 120 nM; in the experiment on U251, 40 nM; with SNB-75, 70 nM; with BT-549 it was 230 nM. The 50% growth inhibitory concentration (GI50) was 50 nM in the experiment with NCI-H226; 50 nM with MDA-MB-468; 490 nM in the experiment on UO-31; 120 nM in the experiment with SF-539; 100 nM in the experiment on SF-295; 100 nM in the experiment with RXF 393. Also, the 50% growth inhibitory concentration (GI50) was 100 nM in the experiment on HOP-92, 130 nM with 786-0, 30 nM in the experiment with SR and 6460 nM in the experiment on HCT-15.
